Measured values from patent publication US20230173059A1, “TOLL-LIKE RECEPTOR (TLR) AGONIST NANOPARTICLES AND USES THEREOF” (The Board of Trustees of the Leland Stanford Junior …, priority 2020, published 2023).
“And” between values parts separate entries of the source, which are not always exact repeats. Equal entries are not always repeated.

T1: TLR9 (Mus musculus, UniProt Q9EQU3)
T1 construct: host or cells: Raw-Blue (NF-kB-SEAP) mouse macrophage reporter cells
T1 sequence (Q9EQU3 26-1032): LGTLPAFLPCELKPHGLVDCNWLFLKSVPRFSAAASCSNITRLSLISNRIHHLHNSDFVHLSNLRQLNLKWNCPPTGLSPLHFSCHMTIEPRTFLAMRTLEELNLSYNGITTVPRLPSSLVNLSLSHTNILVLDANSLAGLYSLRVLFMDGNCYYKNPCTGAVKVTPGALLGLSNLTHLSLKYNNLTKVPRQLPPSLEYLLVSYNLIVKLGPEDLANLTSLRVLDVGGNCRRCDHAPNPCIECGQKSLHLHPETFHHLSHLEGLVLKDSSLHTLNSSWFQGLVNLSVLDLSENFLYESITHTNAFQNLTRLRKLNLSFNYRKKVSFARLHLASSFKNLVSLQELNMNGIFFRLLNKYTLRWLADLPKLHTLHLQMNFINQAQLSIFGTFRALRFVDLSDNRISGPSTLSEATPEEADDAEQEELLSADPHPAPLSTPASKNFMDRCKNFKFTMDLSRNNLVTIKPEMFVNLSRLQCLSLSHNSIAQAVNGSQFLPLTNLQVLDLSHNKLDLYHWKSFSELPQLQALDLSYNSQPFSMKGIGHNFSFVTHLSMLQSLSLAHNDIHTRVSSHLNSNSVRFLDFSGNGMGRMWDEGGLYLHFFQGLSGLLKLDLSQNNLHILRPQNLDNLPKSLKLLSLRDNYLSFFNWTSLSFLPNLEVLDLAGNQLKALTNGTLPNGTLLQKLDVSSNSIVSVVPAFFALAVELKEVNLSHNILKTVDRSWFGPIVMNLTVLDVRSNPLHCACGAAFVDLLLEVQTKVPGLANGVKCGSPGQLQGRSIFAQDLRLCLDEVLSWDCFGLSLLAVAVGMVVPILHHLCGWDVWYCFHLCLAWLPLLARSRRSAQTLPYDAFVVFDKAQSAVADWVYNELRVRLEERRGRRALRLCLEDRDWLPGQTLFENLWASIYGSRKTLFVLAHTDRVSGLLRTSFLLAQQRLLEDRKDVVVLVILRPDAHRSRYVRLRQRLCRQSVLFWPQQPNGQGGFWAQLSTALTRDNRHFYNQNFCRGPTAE

B1: ovalbumin (protein, UniProt P01012 2-386, looked up)
Ovalbumin: GSIGAASMEFCFDVFKELKVHHANENIFYCPIAIMSALAMVYLGAKDSTRTQINKVVRFDKLPGFGDSIEAQCGTSVNVHSSLRDILNQITKPNDVYSFSLASRLYAEERYPILPEYLQCVKELYRGGLEPINFQTAADQARELINSWVESQTNGIIRNVLQPSSVDSQTAMVLVNAIVFKGLWEKAFKDEDTQAMPFRVTEQESKPVQMMYQIGLFRVASMASEKMKILELPFASGTMSMLVLLPDEVSGLEQLESIINFEKLTEWTSSNVMEERKIKVYLPRMKMEEKYNLTSVLMAMGITDVFSSSANLSGISSAESLKISQAVHAAHAEINEAGREVVGSAEAGVDAASVSEEFRADHPFLFCIKHIATNAVLFFGRCVSP
notes: model antigen protein, MW=43 kDa

Columns and labels:
[1] = system: SARS-CoV-2 spike protein; conditions: in vivo, sc
[2] = Cargo and polymer diffusivity (FRAP, Stokes-Einstein, MSDM); assay type: physicochemical; conditions: for Diffusivity in 1:5 gel / Diffusivity in 2:10 gel: FRAP; for Diffusivity in PBS: calculated with Stokes-Einstein from RH
Source text: To characterize the dynamics of vaccine exposure expected from the vaccine-loaded gels, we assessed the diffusivities of both vaccine cargo in each of the two gel formulations of interest using fluorescence recovery after photobleaching (FRAP) experiments (FIG. 9F. FIG. 16). The PNP gels are unique compared to traditional covalently cross-linked gels as their bonds are dynamic and continuously rearrange^28. This feature results in self-diffusion of the polymer network over time within the intact hydrogel^40,41. OVA's hydrodynamic radius (RH) in PBS is reported in the literature to be 3.2 nm^42, corresponding to a diffusivity value, D, of 76.6 μm^2/s. Using multi-angle light scattering (MALS) we measured Poly(I:C)'s hydrodynamic radius to be much larger, with an RH of 34.2 nm, corresponding to a D value of 7.2 μm^2/s. This difference in hydrodynamic size results in OVA having more than a 10-fold greater diffusivity than Poly(I:C) in PBS (FIG. 9G) and a 100-fold difference in a typical covalently cross-linked hydrogel (FIG. 17). […] The measured diffusivities for all experiments can be found in Table 6.
FRAP Analysis: Alexa Fluor 647 conjugated OVA (Thermo Fisher Scientific), rhodamine conjugated Poly(I:C) (Invivogen), and rhodamine conjugated HPMC-C12 were used to visualize the diffusion of the cargo and gel. Samples were photobleached with a 50 μm diameter for the region of interest (ROI). Different tests (n=5) were made for 3 different samples from the same batch at different locations of the sample. A spot was bleached with a pixel dwell time of 177.32 μs. 500 post-bleach frames were recorded at 1 frame/s to form the recovery exponential curve. The diffusion coefficient was calculated as^52:
Where the constant γD=τ1/2τD, with τ1/2 being the half-time of the recovery. τD the characteristic diffusion time, both yielded by the ZEN software, and ω the radius of the bleached ROI (25 μm).
The diffusivity of cargo in PBS was calculated using the Stokes-Einstein Law Equation for diffusion^53 where kB is Boltzmann's constant, T is temperature in Kelvin, η is solvent viscosity, and R is solute hydrodynamic radius
The diffusivity of cargo in a model covalent PEG gel was calculated using the Multiscale Diffusion Model (MSDM) assuming 25° C., 5% volume fraction, and 35 nm mesh size^54.
FRAP Analysis: Alexa Fluor 647 conjugated OVA (Thermo Fisher Scientific), rhodamine conjugated Poly(I:C) (Invivogen), and rhodamine conjugated HPMC-C12 were used to visualize the diffusion of the cargo and gel. The samples were placed in a sterile 0.18 mm thick glass bottom dish (Ibidi). An Inverted Zeiss LSM 780 Laser Scanning Confocal Microscope (Germany) using a Plan-Apochromat 20×/0.8 M27 objective lens was used for FRAP measurements. To excite the fluorescent Alexa Fluor 647, a 5 mW 633 nm He—Ne laser was employed at 2%, and the emitted fluorescence was detected by Alexa Fluor 647 specific band pass filter (638-756 nm). To excite the fluorescent rhodamine, a 20 mW 561 nm diode pumped solid state laser was used at 2%, and the emitted fluorescence was detected by rhodamine specific band pass filter (415-638 nm). We used pixel dwell time 2.55 μs which took 390.98 ms to finish every scan. Samples were photobleached with a 405 nm diode laser, plus the 633 nm laser in the case of the Alexa Fluor, and a 514 nm argon laser and the 561 nm laser in the case of the rhodamine. All lasers were set al 100% intensity for the bleaching, with a 20-40 μm diameter for the region of interest (ROI). To avoid any extra noise, the high voltage was limited to be 700 V. Different tests (n=5) were made for 3 different samples from the same batch at different locations of the sample. For each test, 10 control pre-bleach images were captured at 1 frame/s. A spot was bleached with a pixel dwell time of 177.32 μs. 500 post-bleach frames were recorded at 1 frame/s to form the recovery exponential curve. The pixel size was set to be 1.66 μm. The diffusion coefficient was calculated as^62: […]

[3] = target: T1, TLR9; test: In vitro Raw-Blue reporter assay (CpG); assay type: cell-based; conditions: 100,000 Raw-Blue cells, 21 h, CpG-C 3.1-29 μg/mL, absorbance 655 nm
Description: In vitro Raw-Blue reporter assay. The Raw-Blue (NF-kB-SEAP) reporter cell line (Invivogen, raw-sp) was used to evaluate the valency effect of TLR9 agonist conjugated to PEG-PLA NPs. The cells were cultured at 37° C. with 5% CO2 in DMEM supplemented with L-glutamine (2 mM), D-glucose (4.5 g/L), 10% HI-FBS, and penicillin (100 U/mL)/streptonmcin (100 μg). Every other passage, zeocin (100 μg/mL) was added to the culture medium. Serial dilutions of soluble CpG-B and CpG-C and of the different CpG-B and CpG-C NPs formulations were added to a 96-well tissue culture treated plate to achieve final concentrations between 30 and 3.1 μg/mL of TLR9 agonist. Non-conjugated PEG-PLA NPs were used as a negative control. […] Manufacturer instructions were followed for SEAP quantification, and absorbance levels detected at 655 nm after 3 h incubation with QUANTI-Blue Solution (Invivogen). […]
In these assays, Raw-Blue cells were incubated for 21 h with either the free form, or the NPs tethered form (10%, 20%, 30%, 50%) of CpG-C at a range of CpG concentrations (3.1-29 μg/mL) in order to generate concentration dependent activation curves (FIG. 38B). […] To ensure a correct and consistent dosing of CpG NPs throughout different experiments, we constructed a standard curve for both classes of CpG-NPs (FIGS. 40A, 40B) by measuring the absorbance of different concentration of CpG at 280 nm. […]

[4] = reported in the literature; cited from earlier work

Row | Molecule | anti-spike total IgG endpoint titers [1] | Diffusivity in 1:5 gel [2] | Diffusivity in 2:10 gel [2] | Diffusivity in PBS [2] [μm^2/s] | hydrodynamic radius (RH) ([2]; multi-angle light scattering (MALS)) [nm] | log EC50 [3] | hydrodynamic radius (RH) in PBS [4] [nm]
1 | CpG-B 1826 [soluble CpG-B] | stronger response than the CpG-B NP |  |  |  |  |  | 
2 | Poly(I:C) |  | 1.7 ± 0.3 μm^2/s | 2.4 ± 0.1 μm^2/s | 7.2 | 34.2 |  | 
3 | CpG-C 2395 (DNA TCGTCGTTTTCGGCGCGCGCCG; chemistry not given here) [free CpG-C] |  |  |  |  |  | 1.15 log10(μg/mL) | 
4 | B1 |  | 5.76 μm^2/s and 6 ± 1 μm^2/s | 3.2 μm^2/s and 3.2 ± 0.6 μm^2/s | 76.6 |  |  | 3.2
